One data set has as its system FaDu tumour xenograft. The experiment in a line: Tumour Growth Delay, FaDu tumour xenograft-bearing animals, compound ± radiation (TGD-ER). The format is in vivo. As to conditions: PO. On the procedure: FaDu tumour xenograft-bearing animals were monitored for tumour growth and once average tumour size reached approximately 100-250 mm3, animals were assigned to treatment cohorts using stratified randomization. […]
For BID dosing regimens, at 8 h following the first injection, animals were again administered with test compound at the same dose as their previous administration. Animals were weighed and had tumours measured using calipers three times weekly until the endpoint of maximum tumour volume, 1000 mm3, was reached and animals were euthanized. Tumour volumes were calculated according to the equation L×W^2/2 with the length (mm) being the longer axis of the tumour; in the case that no tumour was palpable, tumour volumes were recorded as 0 mm^3.
Data were calculated as tumour growth normalized to day 0 measurements, with time to tumour doubling determined. Average time to tumour doubling for each group was used to determine a Tumour Growth Delay Enhancement Ratio (TGD-ER): the time to doubling for treatment groups were divided by the time to doubling for irradiation-alone groups to determine group-specific TGD-ER values, and these were assigned scores based on defined response ranges: values>2.5=A, 1-2.5=B, <1=C.

Data set [1] is described as follows: Pharmacokinetic study in male Sprague-Dawley rats (IV and PO), plasma. It counts as in vivo, rat. As to conditions: for AUC(0-t) / Cmax at 5 min / half-life / AUC(0-inf): male, Sprague-Dawley; for AUC(0-t) / Cmax at 5 min / half-life / AUC(0-inf) / AUC—% Extrap—obs / Cl_obs / Vz_obs: rat plasma; for AUC(0-inf): read-out: AUCINF—obs; for F: rat. How it is done:
Pharmacokinetic studies were conducted to estimate plasma concentrations obtained after oral gavage (PO) and intravenous (IV) single administration of compounds administered to male Sprague-Dawley rats. Six (6) rats were administered for each compound, route and dose, and plasma was collected at 12 timepoints over a 24 hr period for IV, and 12 timepoints over a 48 hr period for PO. Note that plasma was collected from only 3 animals per timepoint (n=3 for timepoints up to 10 hours, and n=3 for timepoints from 16 h to end of study). Dosing volumes were 5 mL/kg for IV and 10 mL/kg for PO gavage. IV compounds for administration were in solutions, whereas PO compounds were in solution or suspension.
The in-vivo study plasma samples were analyzed using Ultra Performance Liquid Chromatography (UPLC) with tandem mass spectrometry (MS/MS) detection in multiple reaction monitoring (MRM) mode. A generic bioanalytical method involving plasma sample extraction and cleanup by protein precipitation with acetonitrile was used followed by UPLC-MS/MS analysis.
A brief example of a generic bioanalytical UPLC-MS/MS method used for analysis of compounds in the in-vivo study plasma samples is as follows. Plasma samples were spiked with internal standard prior to extraction and cleanup by protein precipitation with ice cold acetonitrile containing 0.1% (v/v) ammonium hydroxide at a ratio of 3:1 (solvent:plasma) and centrifuged at 18213 rcf for 15 minutes at 4° C. to pellet precipitates. Aliquots of supernatants were transferred to a 96-well plate and evaporated to dryness at 40° C. under a stream of nitrogen gas. Samples were reconstituted in 50:50 acetonitrile/10 mM ammonium acetate buffer pH 8, mixed thoroughly and analyzed using Ultra Performance Liquid Chromatography (UPLC) with tandem mass spectrometry (MS/MS) detection in multiple reaction monitoring (MRM) mode. Matrix-matched calibration standards and quality control (QC) samples were prepared in naïve C57Bl/6 mouse plasma. The UPLC column used was Waters Acquity UPLC BEH C18 1.7 um, 2.1 mm×50 mm (with guard column). The UPLC mobile phase consisted of: Mobile phase A: 10 mM ammonium acetate in Water pH 8, and Mobile phase B: Acetonitrile. Separation was accomplished with a linear gradient of 5% mobile phase B to 95% mobile phase B in 2 min, and a flow rate of 0.35 mL/min. The MS/MS data acquisition was accomplished using 3 MRM Transitions in ESI+ mode. Parent ion mass 508.37 m/z-to-Daughter ions (m/z) 117.05, 232.13 and 270.22. The quantitation of concentrations in test samples was achieved by matrix-matched calibration with normalization using an internal standard. Data acquisition and analysis were performed using Waters MassLynx software with TargetLynx application manager.
Estimation of PK parameters was performed using independent noncompartmental model method by PHOENIX WinNonlin software.

Read-outs that look alike come from different tables or passages of the source.

For `CN(C)C(=O)COc1cnc(N[C@H]2CC[C@@H](Oc3nc(N4CCOCC4)cc4ncccc34)CC2)nc1` [Compound 54, N,N-Dimethyl-2-((2-(((1s,4s)-4-((7-morpholino-1,6-naphthyridin-5-yl)oxy)cyclohexyl)amino)pyrimidin-5-yl)oxy)acetamide], the “TGD-ER Range Score” value is reported as “B (1-2.5=B)” with FaDu tumour xenograft (10 mpk + 10 Gy), “A (values>2.5=A)” in the data set on FaDu tumour xenograft (30 mpk + 10 Gy) and “B (1-2.5=B)” with FaDu tumour xenograft (100 mpk + 10 Gy).
In the case of `O=C(COc1cnc(N[C@H]2CC[C@@H](Oc3nc(N4CCOCC4)cc4ncccc34)CC2)nc1)N1CCOCC1` [Compound 61, 1-Morpholino-2-((2-(((1s,4s)-4-((7-morpholino-1,6-naphthyridin-5-yl)oxy)cyclohexyl)amino)pyrimidin-5-yl)oxy)ethan-1-one], in data set [1] (IV, 3 mg/kg), the area under the curve AUC(0-t) was found to be 912 ng·h/mL, the Cmax at 5 min was 1600 ng/mL, the half-life was 1.49 h and the AUC(0-inf) was 913 ng·h/mL. In data set [1] (IV, 3 mg/kg), the “AUC—% Extrap—obs” value is given as 0.10%, the Cl_obs was found to be 54.761 mL/min/kg and the Vz_obs is 7.05679 L/kg. Further, in data set [1] (PO, 3 mg/kg), the exposure AUC(0-t) stood at 241 ng·h/mL, the Cmax at 5 min was determined as 87.5 ng/mL, the half-life was 5.68 h and the AUC(0-inf) came out at 330 ng·h/mL. Besides, in data set [1] (PO, 3 mg/kg), the “AUC—% Extrap—obs” value is 26.80%, the Cl_obs came to 151.581 mL/min/kg, the Vz_obs worked out at 74.5443 L/kg and the F worked out at 26%. For the same compound, in data set [1] (PO, 10 mg/kg), the area under the curve AUC(0-t) is 1070 ng·h/mL, the peak level (Cmax at 5 min) was 235 ng/mL, the half-life is 2.64 h and the AUC(0-inf) was determined as 1220 ng·h/mL. Further, in data set [1] (PO, 10 mg/kg), the “AUC—% Extrap—obs” value came to 12.39%, the Cl_obs worked out at 136.306 mL/min/kg, the Vz_obs was 31.192 L/kg and the F was 35%. Further, in data set [1] (PO, 30 mg/kg), the AUC(0-t) was found to be 5760 ng·h/mL, the Cmax at 5 min was 655 ng/mL, the half-life was 13.7 h and the AUC(0-inf) is 15800 ng·h/mL. In addition, in data set [1] (PO, 30 mg/kg), the “AUC—% Extrap—obs” value amounted to 63.5%, the Cl_obs amounted to 31.6652 mL/min/kg, the Vz_obs turned out to be 37.65453 L/kg and the F came to 63%. In the data set on FaDu tumour xenograft ((30 mpk + 2 Gy) Q5D), the “TGD-ER Range Score” value is reported as “A (values>2.5=A)”. Also, the “TGD-ER Range Score” value with FaDu tumour xenograft ((30 mpk) Q5D) is “C (<1=C)”.
As for `CN1CCN(CCOc2cnc(N[C@H]3CC[C@@H](Oc4nc(N5CCOCC5)cc5ncccc45)CC3)nc2)CC1` [Compound 69, 5-(2-(4-Methylpiperazin-1-yl)ethoxy)-N-((1s,4s)-4-((7-morpholino-1,6-naphthyridin-5-yl)oxy)cyclohexyl)pyrimidin-2-amine], in data set [1] (IV, 3 mg/kg), the AUC(0-t) was 488 ng·h/mL, the maximum concentration (Cmax) at 5 min is 183 ng/mL, the half-life is 4.82 h and the AUC(0-inf) came to 501 ng·h/mL. In data set [1] (IV, 3 mg/kg), the “AUC—% Extrap—obs” value was determined as 2.61%, the Cl_obs is 99.8872 mL/min/kg and the Vz_obs is 41.64841 L/kg. Further, in data set [1] (PO, 3 mg/kg), the exposure AUC(0-t) turned out to be 305 ng·h/mL, the peak concentration (Cmax) at 5 min turned out to be 27.2 ng/mL, the half-life was 2.81 h and the AUC(0-inf) worked out at 308 ng·h/mL. In data set [1] (PO, 3 mg/kg), the “AUC—% Extrap—obs” value came out at 1.07%, the Cl_obs stood at 162.417 mL/min/kg, the Vz_obs is 39.5678 L/kg and the F was 62%. Further, in data set [1] (PO, 10 mg/kg), the AUC(0-t) was 1550 ng·h/mL, the maximum concentration (Cmax) at 5 min came to 140 ng/mL, the half-life was 3.23 h and the AUC(0-inf) stood at 1570 ng·h/mL. For the same compound, in data set [1] (PO, 10 mg/kg), the “AUC—% Extrap—obs” value was 1.16%, the Cl_obs came to 106.252 mL/min/kg, the Vz_obs was found to be 29.72118 L/kg and the F came to 95%. Also, in data set [1] (PO, 30 mg/kg), the area under the curve AUC(0-t) turned out to be 5870 ng·h/mL, the peak level (Cmax at 5 min) was 482 ng/mL, the half-life was 6.47 h and the AUC(0-inf) came to 5890 ng·h/mL. In data set [1] (PO, 30 mg/kg), the “AUC—% Extrap—obs” value is recorded as 0.37%, the Cl_obs amounted to 84.9088 mL/min/kg, the Vz_obs worked out at 47.52784 L/kg and the F came to 120%. Also, in the data set with FaDu tumour xenograft (30 mpk + @4 h 10 Gy), the “TGD-ER Range Score” value is given as “C (<1=C)”. Moreover, the “TGD-ER Range Score” value in the data set with FaDu tumour xenograft (30 mpk BID + 10 Gy) is on record as “B (1-2.5=B)”. Moreover, the “TGD-ER Range Score” value in the data set with FaDu tumour xenograft (100 mpk + @4 h 10 Gy) is “B (1-2.5=B)”. In addition, in the data set with FaDu tumour xenograft ((30 mpk + 2 Gy) Q5D), the “TGD-ER Range Score” value is listed as “A (values>2.5=A)”. The “TGD-ER Range Score” value in the data set with FaDu tumour xenograft ((30 mpk) Q5D) is “C (<1=C)”.
On to `O=C(COc1cnc(N[C@H]2CC[C@@H](Oc3nc(N4CCOCC4)cc4ncccc34)CC2)nc1)N1CCC1` [Compound 75, 1-(Azetidin-1-yl)-2-((2-(((1s,4s)-4-((7-morpholino-1,6-naphthyridin-5-yl)oxy)cyclohexyl)amino)pyrimidin-5-yl)oxy)ethan-1-one], for which, in the data set on FaDu tumour xenograft (30 mpk BID + 10 Gy), the “TGD-ER Range Score” value is “B (1-2.5=B)”.
In the case of `CN(C)C(=O)Cn1ccc2nc(N[C@H]3CC[C@@H](Oc4nc(N5CCOCC5)cc5ncccc45)CC3)ncc21` [Compound 86, N,N-Dimethyl-2-(2-(((1s,4s)-4-((7-morpholino-1,6-naphthyridin-5-yl)oxy)cyclohexyl)amino)-5H-pyrrolo[3,2-d]pyrimidin-5-yl)acetamide], in data set [1] (IV, 3 mg/kg), the AUC(0-t) is 371 ng·h/mL, the Cmax at 5 min is 886 ng/mL, the half-life is 0.67 h and the AUC(0-inf) turned out to be 374 ng·h/mL. Besides, in data set [1] (IV, 3 mg/kg), the “AUC—% Extrap—obs” value is reported as 0.91%, the Cl_obs was 133.623 mL/min/kg and the Vz_obs is 7.72522 L/kg. For the same compound, in data set [1] (PO, 3 mg/kg), the AUC(0-t) came to 71.6 ng·h/mL, the highest level (Cmax at 5 min) was 28.2 ng/mL, the half-life is 2.59 h and the AUC(0-inf) was found to be 78.4 ng·h/mL. In data set [1] (PO, 3 mg/kg), the “AUC—% Extrap—obs” value worked out at 8.66%, the Cl_obs came out at 637.8442 mL/min/kg, the Vz_obs stood at 142.79445 L/kg and the F is 19%. In data set [1] (PO, 10 mg/kg), the exposure AUC(0-t) worked out at 1290 ng·h/mL, the highest level (Cmax at 5 min) was 203 ng/mL, the half-life was 2.39 h and the AUC(0-inf) turned out to be 1490 ng·h/mL. Besides, in data set [1] (PO, 10 mg/kg), the “AUC—% Extrap—obs” value worked out at 13.08%, the Cl_obs turned out to be 111.962 mL/min/kg, the Vz_obs is 23.13291 L/kg and the F stood at 105%. For the same compound, in data set [1] (PO, 30 mg/kg), the AUC(0-t) worked out at 14100 ng·h/mL, the peak level (Cmax at 5 min) was 1600 ng/mL, the half-life was 1.26 h and the AUC(0-inf) came out at 14100 ng·h/mL. In addition, in data set [1] (PO, 30 mg/kg), the “AUC—% Extrap—obs” value is on record as 0.0%, the Cl_obs was 35.5335 mL/min/kg, the Vz_obs stood at 3.87755 L/kg and the F was 379%. Moreover, the “TGD-ER Range Score” value with FaDu tumour xenograft (30 mpk BID + 10 Gy) is recorded as “B (1-2.5=B)”. In the data set on FaDu tumour xenograft ((30 mpk + 2 Gy) Q5D), the “TGD-ER Range Score” value was “A (values>2.5=A)”. In addition, in the data set with FaDu tumour xenograft ((30 mpk) Q5D), the “TGD-ER Range Score” value is reported as “B (1-2.5=B)”.

For the origin of these results see patent publication US20240239790A1, “7-Morpholino-1,6-Naphthyridin-5-yl Derivatives and Pharmaceutical Compositions Thereof Useful as DNA-PK Inhibitor” (adMare Therapeutics Society, priority 2021, published 2024).
